Reference: PubChem BioAssay (NCI)
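GI50 = concentration required for 50% inhibition of growth. TGI denotes the concentration required for complete inhibition of growth.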

Key:
Assay in all cases: NCI-60 cell line screen, 384-well format
MOLT-4 leukemia = system: MOLT-4 leukemia
NCI-H460 NSCLC = system: NCI-H460 NSCLC
HCC-2998 colon = system: HCC-2998 colon
NCI/ADR-RES ovarian = system: NCI/ADR-RES ovarian
HT29 colon = system: HT29 colon
SF-295 CNS = system: SF-295 CNS
COLO 205 colon = system: COLO 205 colon
HL-60(TB) leukemia = system: HL-60(TB) leukemia
HS 578T breast = system: HS 578T breast
UACC-257 melanoma = system: UACC-257 melanoma
A549 NSCLC = system: A549 NSCLC
DU-145 prostate = system: DU-145 prostate
HCT-15 colon = system: HCT-15 colon

Row | Compound | GI50 (MOLT-4 leukemia) | GI50 (NCI-H460 NSCLC) | TGI (NCI-H460 NSCLC) | GI50 (HCC-2998 colon) | TGI (HCC-2998 colon) | GI50 (NCI/ADR-RES ovarian) | TGI (NCI/ADR-RES ovarian) | GI50 (HT29 colon) | TGI (HT29 colon) | GI50 (SF-295 CNS) | TGI (SF-295 CNS) | GI50 (COLO 205 colon) | TGI (COLO 205 colon) | GI50 (HL-60(TB) leukemia) | TGI (HL-60(TB) leukemia) | GI50 (HS 578T breast) | TGI (HS 578T breast) | GI50 (UACC-257 melanoma) | TGI (UACC-257 melanoma) | GI50 (A549 NSCLC) | other results
1 | O=C(NC[C@H](O)CN1CCc2ccccc2C1)c1cc(NC2COC2)ncn1 | 0.0768 µM | 6 µM | > 100 µM | > 100 µM | > 100 µM | > 100 µM | > 100 µM | > 100 µM | > 100 µM | > 100 µM | > 100 µM | > 100 µM | > 100 µM | > 28.3 µM | > 100 µM | > 100 µM | > 100 µM | > 100 µM | > 100 µM | > 100 µM | TGI (A549 NSCLC): > 100 µM; GI50 (DU-145 prostate): > 100 µM; TGI (DU-145 prostate): > 100 µM; GI50 (HCT-15 colon): > 100 µM; TGI (HCT-15 colon): > 100 µM
2 | CN1CCN(c2ccc(Nc3cc(-c4cccc(-n5ccc6cc(C7CC7)cc(F)c6c5=O)c4CO)cn(C)c3=O)nc2)CC1 | 1.51 µM | 2.06 µM | 4.14 µM | 2.09 µM | 5.3 µM | 2.51 µM | 5.66 µM | 1.72 µM | 3.19 µM | 2.21 µM | 4.93 µM | 2.02 µM | 3.69 µM | 1.84 µM | 3.25 µM | 1.82 µM | 3.48 µM | 1.74 µM | 3.13 µM | 3.1 µM | TGI (MOLT-4 leukemia): 2.85 µM; TGI (A549 NSCLC): 10.5 µM; GI50 (DU-145 prostate): 2.97 µM; TGI (DU-145 prostate): 9.08 µM; GI50 (HCT-15 colon): 2.45 µM; TGI (HCT-15 colon): 7.4 µM
